One experiment concerns the target T1, human DOR (Homo sapiens, UniProt P41143).
T1 construct: expressed in transfected cells; host or cells: CHO cells (CHO-hDOR), gift of Lawrence Toll, SRI International
The experiment is described as follows: Radioligand competitive binding assay with [3H]DPDPE, membranes from CHO-hDOR cells. The following applies: compound at 10 μM.

The target of experiment [1] is T2, human KOR (Homo sapiens, UniProt P41145). Briefly: [35S]GTPγS binding assay, antagonist study: inhibition of U69,593-induced stimulation, CHO-hKOR membranes. In kind it is biochemical. The conditions noted are these: U69,593 1 μM; read-out: inhibition of U69,593-induced stimulation of [35S]GTPγS binding, Inhibition.
Experiment [2] has as its target T2, human KOR. The experiment is described as follows: Radioligand competitive binding assay with [3H]U69,593, membranes from CHO-hKOR cells. The conditions noted are these: for inhibition at 10 µM: read-out: inhibition of [3H]U69,593 binding at the KOR; for Ki: read-out: binding affinity Ki.
For the next experiment, the target named is T3, human MOR (Homo sapiens, UniProt P35372).
T3 construct: expressed in transfected cells; host or cells: CHO cells (CHO-hMOR), gift of Lawrence Toll, SRI International
In kind it is binding.

Experiment [3] addresses T2, human KOR. Briefly: [35S]GTPγS binding assay, antagonist study: inhibition of U69,593-induced stimulation, CHO-hKOR membranes. The conditions noted are these: U69,593 1 μM. Type of experiment: biochemical. (In general: GTPγS is a poorly hydrolysed GTP analogue; its binding reports G protein activation.)
The target in experiment [4] is T2, human KOR. The experiment is described as follows: [35S]GTPγS binding assay (G protein activation), CHO-hKOR cell membranes. In kind it is biochemical. The following applies: for Emax: read-out: G protein activation Emax.
Experiment [5] concerns the target T2, human KOR. Briefly: PathHunter β-arrestin2 recruitment assay, U2OS-hKOR-β-arrestin2 cells. Type of experiment: cell-based. The conditions noted are these: for EC50: U2OS cells coexpressing hKOR and β-arrestin2, tested up to 10 μM, read-out: β-arrestin2 recruitment EC50 (dash symbol).
The next experiment has as its system KOR. The conditions noted are these: cited from earlier work.
Experiment [6] has as its target T2, human KOR. Briefly: [35S]GTPγS binding assay, antagonist study: inhibition of U69,593-induced stimulation, CHO-hKOR membranes. The following applies: read-out: inhibition of U69,593-induced stimulation of [35S]GTPγS binding, Inhibition. Type of experiment: biochemical. Also on record: dose or concentration left out as unconfirmed.

This is an account of results in article PMC11345774, “Discovery of Novel, Selective, and Nonbasic Agonists for the Kappa-Opioid Receptor Determined by Salvinorin A-Based Virtual Screening” (Journal of Medicinal Chemistry, 2024).

Where two headings read alike, the source gives them in different places.

As usually defined, the inhibition is the relative decrease from the control value, in per cent. Usually Ki stands for the dissociation constant of the complex between target and ligand, obtained from inhibition or displacement. In general, IC50 refers to the point on the concentration scale where inhibition reaches its midpoint. Broadly, the EC50 is the midpoint of the concentration-response curve. One may read the Emax as the maximal effect, on the per cent scale that the assay sets.

`CCO[C@@]12Cc3c([nH]c4ccccc34)[C@]3(C)Oc4c(O)ccc5c4[C@@]31CCN(CC1CC1)C2C5` [HS378, reference compound]: the “binding at the DOR” value on human DOR is “significant binding”.

As to `Cc1cc2n(n1)C1(CCN(C(=O)c3ccc(Cl)cc3)CC1)CC(=O)N2CC1CC1` [SalA-VS-07], the inhibition at human KOR [1] is 52 ± 4%. The inhibition at 10 µM on human KOR [2] (compound at 10 μM) was over 50%. The Ki on human KOR [2] turned out to be 423 ± 97 nM. Further, at human MOR, the “binding at the MOR” value is given as “no substantial binding”. Besides, the “binding at the DOR” value at human DOR is listed as “no substantial binding”. The compound also displayed an IC50 at human KOR [3] of 1270 ± 334 nM. Moreover, the results for the EC50 at human KOR [4] and on human KOR [5] were 181 ± 49 nM and over 10 µM, respectively. Besides, the Emax on human KOR [4] (relative to maximal effect of U69,593 (as 100%)) was 48 ± 7%. Also, at human KOR [5], the “β-arrestin2 recruitment upon activation of the KOR (in words)” value is “failed to induce β-arrestin2 recruitment”.

Take `Cc1cc2n(n1)C1(CCN(C(=O)c3cccc(F)c3)CC1)CC(=O)N2CC1CC1` [SalA-VS-08]: on human KOR [2], the “increased affinity at the KOR than SalA-VS-07” value is recorded as “about 6 fold”, the Ki was found to be 68.5 ± 5.5 nM and the inhibition at 10 µM was over 50%. Besides, the “binding at the MOR” value at human MOR is reported as “no substantial binding”. Also, the “binding at the DOR” value on human DOR was “no substantial binding”. Also, on human KOR [4], a half-maximal response (EC50) required 854 ± 60 nM, the “lower agonist potency at the KOR compared to SalA-VS-07” value stood at 5 fold and the Emax came to 108 ± 8%. In addition, at human KOR [5], the “β-arrestin2 recruitment upon activation of the KOR (in words)” value is “failed to induce β-arrestin2 recruitment” and the EC50 is over 10 µM.

For the compound `Cc1cc2n(n1)C1(CCN(C(=O)c3ccncc3)CC1)CC(=O)N2CC1CC1` [SalA-VS-09], the “KOR activity (in words)” value at human KOR [2] (binding screen at 10 μM) was “inactive”.

Regarding `COC(=O)[C@@H]1C[C@H](O)C(=O)[C@H]2[C@@]1(C)CC[C@H]1C(=O)O[C@H](c3ccoc3)C[C@]21C` [SalB, Salvinorin B], the “activity at the KOR (in words)” value in the experiment with KOR was “inactive”.

With `Oc1ccc2c3c1O[C@H]1c4[nH]c5c(c4C[C@@]4(O)[C@@H](C2)N(CC2CC2)CC[C@]314)C[C@@]1(O)[C@H]2Cc3ccc(O)c4c3[C@@]1(CCN2CC1CC1)[C@H]5O4` [nor-BNI, nor-binaltorphimine, reference compound], the inhibition on human KOR [6] was found to be 92 ± 6%.
